ChEMBL document CHEMBL4706648, “Antitubercular 2-Pyrazolylpyrimidinones: Structure-Activity Relationship and Mode-of-Action Studies” (J Med Chem, 2021)
Values after ≈ are worked out from the molar mass of the structure shown.

Columns and labels:
Type in all cases: functional, H37Rv
Details in all cases: time 7-14 day
[1] = tested on: Mycobacterium tuberculosis
[2] = tested on: Mycobacterium tuberculosis; remark: listed apart in the source
[3] = tested on: Mycobacterium tuberculosis; remark: listed apart in the source
[4] = tested on: Mycobacterium tuberculosis; remark: listed apart in the source

Structure (SMILES) | MIC [1] | MIC [2] | MIC [3] | MIC [4]
Cc1cc(C)n(-c2nc(O)cc(-c3ccccc3)n2)n1 | 18 µM (≈ 4.79 µg/mL) | 1.9 µM (≈ 0.506 µg/mL) | 16 µM (≈ 4.26 µg/mL) | 40 µM (≈ 10.7 µg/mL)
Cc1cc(Nc2ccc(F)cc2)n(-c2nc(C(F)(F)F)cc(=O)[nH]2)n1 |  | 1 µM (≈ 0.353 µg/mL) |  | 
CCNc1cc(C)nn1-c1nc(-c2cccnc2)cc(=O)[nH]1 | 41 µM (≈ 12.1 µg/mL) | 5.5 µM (≈ 1.63 µg/mL) |  | 
Cc1cc(C)n(-c2nc(C(F)(F)F)cc(=O)[nH]2)n1 | 170 µM (≈ 43.9 µg/mL) | 17 µM (≈ 4.39 µg/mL) |  | 
CC(=O)Nc1cc(C)nn1-c1nc(-c2ccccc2)cc(=O)[nH]1 |  | 24 µM (≈ 7.42 µg/mL) |  | 
COCCNc1cc(C)nn1-c1nc(C(F)(F)F)cc(=O)[nH]1 | 39 µM (≈ 12.4 µg/mL) | 1.9 µM (≈ 0.603 µg/mL) |  | 
Cc1ccc(Nc2cc(C)nn2-c2nc(C)cc(O)n2)cc1 | 55 µM (≈ 16.2 µg/mL) | 5.4 µM (≈ 1.59 µg/mL) | 45 µM (≈ 13.3 µg/mL) | 110 µM (≈ 32.5 µg/mL)
